# Target: T1, human APJ receptor (Homo sapiens, UniProt P35414)
# T1 construct: expressed in transfected cells; host or cells: HEK293
# T1 sequence (P35414 1-380): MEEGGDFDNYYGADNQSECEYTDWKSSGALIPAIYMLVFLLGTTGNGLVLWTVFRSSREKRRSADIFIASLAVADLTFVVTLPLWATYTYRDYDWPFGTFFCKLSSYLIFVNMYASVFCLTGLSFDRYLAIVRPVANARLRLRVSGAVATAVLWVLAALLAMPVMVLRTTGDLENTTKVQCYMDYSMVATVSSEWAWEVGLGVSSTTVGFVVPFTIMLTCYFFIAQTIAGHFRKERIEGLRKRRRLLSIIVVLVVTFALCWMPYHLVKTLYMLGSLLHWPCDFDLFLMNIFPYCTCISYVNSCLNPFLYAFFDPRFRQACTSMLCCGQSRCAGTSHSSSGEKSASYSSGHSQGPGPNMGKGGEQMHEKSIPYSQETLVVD
# Assay: Intracellular cAMP accumulation assay (APJ hcAMP, HTRF)
# Type: cell-based
# Details: HEK293 cells stably expressing human APJ receptor; inhibition of forskolin-mediated cAMP production; Table 1; read-out: hAPJ cAMP EC50 Potency range
# In short: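 Inhibition of forskolin (2 μM)-driven cAMP, with […], measured by HTRF after 30 min room-temperature compound exposure of stably transfected HEK293 cells. cAMP read from a standard curve; variable-slope fit gives EC50, and maximal inhibition is normalised to (Pyr1)apelin-13 as 100%.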
row,Compound,EC50
1,"CCCCc1nc(O)c(S(=O)(=O)c2ccc(-c3ccc(F)nc3C)cc2)c(O)c1N1CCCCc2ccccc21 [Example 177, 6-butyl-3-((4-(6-fluoro-2-methylpyridin-3-yl)phenyl)sulfonyl)-5-(2,3,4,5-tetrahydro-1H-benzo[b]azepin-1-yl)pyridine-2,4-diol]",10 to 100 nM
2,"CCCCc1nc(O)c(S(=O)(=O)c2ccc(Br)cc2)c(O)c1N(C)c1ccccc1 [Example 010, 3-((4-bromophenyl)sulfonyl)-6-butyl-5-(methyl(phenyl)amino)pyridine-2,4-diol]",10 to 100 nM
3,"CCCCc1nc(O)c(S(=O)(=O)c2ccc(-c3ccnc(F)c3C)cc2)c(O)c1N(C)c1cccc(Cl)c1 [Example 107, 6-butyl-5-((3-chlorophenyl)(methyl)amino)-3-((4-(2-fluoro-3-methylpyridin-4-yl)phenyl)sulfonyl)pyridine-2,4-diol]",0.01 to 10 nM
4,"CCCCc1nc(O)c(S(=O)(=O)c2ccc(-c3ccccc3C(=O)N(C)C)cc2)c(O)c1N1CCCc2ccccc21 [Example 054, 4′-((6-butyl-5-(3,4-dihydroquinolin-1(2H)-yl)-2,4-dihydroxypyridin-3-yl)sulfonyl)-N,N-dimethyl-[1,1′-biphenyl]-2-carboxamide]",10 to 100 nM
5,"CCN(c1ccccc1)c1c(CC2CC2)nc(O)c(S(=O)(=O)c2ccc(-c3ccnc(F)c3C)cc2)c1O [Example 049, 6-(cyclopropylmethyl)-5-(ethyl(phenyl)amino)-3-((4-(2-fluoro-3-methylpyridin-4-yl)phenyl)sulfonyl)pyridine-2,4-diol]",0.01 to 10 nM
6,"CCCCc1nc(O)c(S(=O)(=O)c2ccc(-c3cccnc3C)cc2)c(O)c1N(C)c1cccc(OC)c1 [Example 039, 6-butyl-5-((3-methoxyphenyl)(methyl)amino)-3-((4-(2-methylpyridin-3-yl)phenyl)sulfonyl)pyridine-2,4-diol]",0.01 to 10 nM
7,"CCCCc1nc(O)c(S(=O)(=O)c2ccc(-c3cccnc3C)cc2)c(O)c1N(C)c1ccc(Cl)cc1 [Example 111, 6-butyl-5-((4-chlorophenyl)(methyl)amino)-3-((4-(2-methylpyridin-3-yl)phenyl)sulfonyl)pyridine-2,4-diol]",0.01 to 10 nM

# Results, then the compound that gave them:
row,EC50,Compound
1,0.01 to 10 nM,"CCCCc1nc(O)c(S(=O)(=O)c2ccc(-c3ccncc3C)cc2)c(O)c1N1CCCOc2ccccc21 [Example 129, 6-butyl-5-(3,4-dihydrobenzo[b][1,4]oxazepin-5(2H)-yl)-3-((4-(3-methylpyridin-4-yl)phenyl)sulfonyl)pyridine-2,4-diol]"
2,0.01 to 10 nM,"CCCCc1nc(O)c(S(=O)(=O)c2ccc(-c3ccc(F)nc3C)cc2)c(O)c1N(CC)c1ccccc1 [Example 086, 6-butyl-5-(ethyl(phenyl)amino)-3-((4-(6-fluoro-2-methylpyridin-3-yl)phenyl)sulfonyl)pyridine-2,4-diol]"
3,0.01 to 10 nM,"CCCCc1nc(O)c(S(=O)(=O)c2ccc(-c3ccncc3C)cc2)c(O)c1N(CC)c1ccccc1 [Example 078, 6-butyl-5-(ethyl(phenyl)amino)-3-((4-(3-methylpyridin-4-yl)phenyl)sulfonyl)pyridine-2,4-diol]"
4,0.01 to 10 nM,"CCN(c1ccccc1)c1c(-c2ccn(C)n2)nc(O)c(S(=O)(=O)c2ccc(-c3cccnc3C)cc2)c1O [Example 058, 5-(ethyl(phenyl)amino)-6-(1-methyl-1H-pyrazol-3-yl)-3-((4-(2-methylpyridin-3-yl)phenyl)sulfonyl)pyridine-2,4-diol]"
5,0.01 to 10 nM,"CCCCc1nc(O)c(S(=O)(=O)c2ccc(-c3ccccc3C(N)=O)cc2)c(O)c1N(CC)c1cc(C)cc(C)c1 [Example 143, 4′-((6-butyl-5-((3,5-dimethylphenyl)(ethyl)amino)-2,4-dihydroxypyridin-3-yl)sulfonyl)-[1,1′-biphenyl]-2-carboxamide]"

# Same assay, conditions: Human APJ cAMP Potency range, HEK293 cells stably expressing human APJ receptor; inhibition of forskolin-mediated cAMP production
row,Compound,EC50
1,"CCCCc1nc(O)c(C(=O)N2CC[C@@H](c3ccccc3)C2)c(O)c1N(CC)c1ccccc1 [Example 001, (S)-(6-butyl-5-(ethyl(phenyl)amino)-2,4-dihydroxypyridin-3-yl)(3-phenylpyrrolidin-1-yl)methanone]",10 to 100 nM

# Reference: patent US10669258B2, “3-sulfonyl-5-aminopyridine-2,4-diol APJ agonists” (BRISTOL-MYERS SQUIBB COMPANY, priority 2016, dated 2020)
